Test results published in the supplement of paper PMC6045584.
± gives the standard deviation of the averaged measurements.

compound: CCC1=C[C@@H]2CN(C1)Cc1c([nH]c3ccccc13)[C@@](C(=O)OC)(c1cc3c(cc1OC)N(C)[C@H]1[C@@](O)(C(=O)OC)[C@H](OC(C)=O)[C@]4(CC)C=CCN5CC[C@]31[C@@H]54)C2 [VINORELBINE]; test: surviving fraction relative to DMSO-only wells; higher = less growth inhibition; details: 0.5 nM; exposure time: 5 days
Outline: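 Tumour cell lines in log phase were plated in 384-well plates at 250–500 cells per well, then, after 24 hours, exposed continuously for five days to inhibitors at 0.5, 1, 5, 10, 50, 100, 500 and 1000 nM. Viability came from CellTiter-Glo luminescence, and surviving fraction is that signal normalised to the median of DMSO-only wells. Plates were read after 10 minutes at room temperature, and each line, screened three times, was kept only when replicate Pearson r was >0.7 and median Z' was >0.3.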

| Test System | surviving fraction |
| --- | --- |
| HU09 BONE | 1.09 ± 0.035 |
| JIMT1 BREAST | 0.955 ± 0.036 |
| JURKAT HAEMATOPOIETIC AND LYMPHOID TISSUE | 1.07 ± 0.02 |
| KPD BONE | 0.953 ± 0.04 |
| LM7 BONE | 0.973 ± 0.062 |
| MCF7 BREAST | 0.932 ± 0.027 |
| MDAMB134 BREAST | 0.97 ± 0.1 |
| MDAMB157 BREAST | 0.915 ± 0.076 |
| MDAMB231 BREAST | 0.976 ± 0.035 |
| MDAMB361 BREAST | 0.791 ± 0.062 |
| MDAMB436 BREAST | 0.9 ± 0.064 |
| MDAMB453 BREAST | 1.04 ± 0.049 |
| MDAMB468 BREAST | 1.02 ± 0.065 |
| MFM223 BREAST | 1.13 ± 0.1 |
| MG63 BONE | 1.02 ± 0.025 |
| MHM BONE | 1.01 ± 0.029 |
| NCIH441 LUNG | 1.13 ± 0.13 |
| NOS1 BONE | 0.987 ± 0.04 |
| NY BONE | 0.994 ± 0.019 |
| OS25HAL BONE | 0.97 ± 0.046 |
| OSHN BONE | 1.07 ± 0.022 |

| Test System | surviving fraction |
| --- | --- |
| PCI30 HEADNECK | 0.994 ± 0.024 |
| RDES SOFT TISSUE | 1.23 ± 0.18 |
| S68 BREAST | 1.12 ± 0.4 |
| SAOS2 BONE | 1.12 ± 0.014 |
| SCC36 HEADNECK | 1.09 ± 0.15 |
| SCC47 HEADNECK | 1.09 ± 0.13 |
| SCC90 HEADNECK | 1.04 ± 0.072 |
| SG27 HEADNECK | 1.17 ± 0.16 |
| SG28 HEADNECK | 1.17 ± 0.22 |
| SG31 HEADNECK | 1.08 ± 0.15 |
| SG32 HEADNECK | 1.32 ± 0.21 |
| SG43 HEADNECK | 1.04 ± 0.14 |
| SIHA CERVIX | 1.09 ± 0.064 |
| SJSA1 BONE | 1.03 ± 0.021 |
| SKBR3 BREAST | 0.957 ± 0.093 |
| SNU475 LIVER | 0.982 ± 0.019 |
| SUM44 BREAST | 1.01 ± 0.068 |
| SUM149 BREAST | 1.07 ± 0.072 |
| SUM149.B1*.S BREAST | 1.11 ± 0.042 |
| SUM159 BREAST | 0.966 ± 0.14 |

same assay, conditions: 1 nM; exposure time: 5 days

| Test System | surviving fraction |
| --- | --- |
| HU09 BONE | 1.02 ± 0.11 |
| JIMT1 BREAST | 0.9598 ± 0.0091 |
| JURKAT HAEMATOPOIETIC AND LYMPHOID TISSUE | 1.066 ± 0.0099 |
| KPD BONE | 0.915 ± 0.055 |
| LM7 BONE | 0.9683 ± 0.0047 |
| MCF7 BREAST | 0.914 ± 0.025 |
| MDAMB134 BREAST | 0.842 ± 0.025 |
| MDAMB157 BREAST | 0.872 ± 0.076 |
| MDAMB231 BREAST | 0.998 ± 0.02 |
| MDAMB361 BREAST | 0.786 ± 0.076 |
| MDAMB436 BREAST | 0.88 ± 0.045 |
| MDAMB453 BREAST | 1.029 ± 0.004 |
| MDAMB468 BREAST | 0.929 ± 0.019 |
| MFM223 BREAST | 1.05 ± 0.066 |
| MG63 BONE | 1 ± 0.043 |
| MHM BONE | 0.988 ± 0.029 |
| NCIH441 LUNG | 1.11 ± 0.059 |
| NOS1 BONE | 1.1 ± 0.081 |
| NY BONE | 0.964 ± 0.026 |
| OS25HAL BONE | 0.985 ± 0.021 |
| OSHN BONE | 1.048 ± 0.0086 |

| Test System | surviving fraction |
| --- | --- |
| PCI30 HEADNECK | 1.05 ± 0.02 |
| RDES SOFT TISSUE | 1.15 ± 0.28 |
| S68 BREAST | 0.785 ± 0.22 |
| SAOS2 BONE | 1.18 ± 0.066 |
| SCC36 HEADNECK | 0.927 ± 0.057 |
| SCC47 HEADNECK | 1.06 ± 0.013 |
| SCC90 HEADNECK | 1.04 ± 0.06 |
| SG27 HEADNECK | 1.09 ± 0.096 |
| SG28 HEADNECK | 1.04 ± 0.061 |
| SG31 HEADNECK | 1.19 ± 0.14 |
| SG32 HEADNECK | 1.18 ± 0.3 |
| SG43 HEADNECK | 1.13 ± 0.097 |
| SIHA CERVIX | 1.14 ± 0.13 |
| SJSA1 BONE | 1 ± 0.041 |
| SKBR3 BREAST | 1.17 ± 0.035 |
| SNU475 LIVER | 0.998 ± 0.011 |
| SUM44 BREAST | 0.972 ± 0.034 |
| SUM149 BREAST | 1.11 ± 0.038 |
| SUM149.B1*.S BREAST | 1.06 ± 0.05 |
| SUM159 BREAST | 0.944 ± 0.2 |

same assay, conditions: 5 nM; exposure time: 5 days

| Test System | surviving fraction |
| --- | --- |
| HU09 BONE | 0.981 ± 0.1 |
| JIMT1 BREAST | 0.512 ± 0.025 |
| JURKAT HAEMATOPOIETIC AND LYMPHOID TISSUE | 0.952 ± 0.041 |
| KPD BONE | 0.96 ± 0.087 |
| LM7 BONE | 0.757 ± 0.023 |
| MCF7 BREAST | 0.861 ± 0.058 |
| MDAMB134 BREAST | 0.751 ± 0.072 |
| MDAMB157 BREAST | 0.748 ± 0.084 |
| MDAMB231 BREAST | 0.904 ± 0.027 |
| MDAMB361 BREAST | 0.695 ± 0.056 |
| MDAMB436 BREAST | 0.796 ± 0.12 |
| MDAMB453 BREAST | 0.387 ± 0.038 |
| MDAMB468 BREAST | 0.645 ± 0.025 |
| MFM223 BREAST | 0.905 ± 0.094 |
| MG63 BONE | 1.06 ± 0.02 |
| MHM BONE | 1.022 ± 0.0092 |
| NCIH441 LUNG | 1.02 ± 0.072 |
| NOS1 BONE | 0.978 ± 0.024 |
| NY BONE | 0.924 ± 0.075 |
| OS25HAL BONE | 1.02 ± 0.024 |
| OSHN BONE | 1.09 ± 0.021 |

| Test System | surviving fraction |
| --- | --- |
| PCI30 HEADNECK | 0.463 ± 0.054 |
| RDES SOFT TISSUE | 1.19 ± 0.18 |
| S68 BREAST | 0.995 ± 0.23 |
| SAOS2 BONE | 1.07 ± 0.06 |
| SCC36 HEADNECK | 1.09 ± 0.093 |
| SCC47 HEADNECK | 0.967 ± 0.055 |
| SCC90 HEADNECK | 1.01 ± 0.12 |
| SG27 HEADNECK | 1.13 ± 0.12 |
| SG28 HEADNECK | 0.998 ± 0.099 |
| SG31 HEADNECK | 0.848 ± 0.12 |
| SG32 HEADNECK | 0.81 ± 0.042 |
| SG43 HEADNECK | 0.785 ± 0.095 |
| SIHA CERVIX | 1.12 ± 0.027 |
| SJSA1 BONE | 1.04 ± 0.076 |
| SKBR3 BREAST | 0.532 ± 0.12 |
| SNU475 LIVER | 1.01 ± 0.029 |
| SUM44 BREAST | 0.668 ± 0.068 |
| SUM149 BREAST | 1.03 ± 0.059 |
| SUM149.B1*.S BREAST | 1.09 ± 0.057 |
| SUM159 BREAST | 0.941 ± 0.2 |

same assay, conditions: 10 nM; exposure time: 5 days

| Test System | surviving fraction |
| --- | --- |
| HU09 BONE | 0.558 ± 0.071 |
| JIMT1 BREAST | 0.304 ± 0.03 |
| JURKAT HAEMATOPOIETIC AND LYMPHOID TISSUE | 0.168 ± 0.034 |
| KPD BONE | 0.839 ± 0.093 |
| LM7 BONE | 0.499 ± 0.062 |
| MCF7 BREAST | 0.817 ± 0.022 |
| MDAMB134 BREAST | 0.691 ± 0.082 |
| MDAMB157 BREAST | 0.465 ± 0.045 |
| MDAMB231 BREAST | 0.681 ± 0.027 |
| MDAMB361 BREAST | 0.603 ± 0.016 |
| MDAMB436 BREAST | 0.742 ± 0.038 |
| MDAMB453 BREAST | 0.244 ± 0.022 |
| MDAMB468 BREAST | 0.379 ± 0.041 |
| MFM223 BREAST | 0.512 ± 0.01 |
| MG63 BONE | 1 ± 0.023 |
| MHM BONE | 1 ± 0.02 |
| NCIH441 LUNG | 0.877 ± 0.029 |
| NOS1 BONE | 0.805 ± 0.024 |
| NY BONE | 0.437 ± 0.016 |
| OS25HAL BONE | 0.912 ± 0.052 |
| OSHN BONE | 1.04 ± 0.021 |

| Test System | surviving fraction |
| --- | --- |
| PCI30 HEADNECK | 0.228 ± 0.017 |
| RDES SOFT TISSUE | 1.24 ± 0.39 |
| S68 BREAST | 0.572 ± 0.26 |
| SAOS2 BONE | 0.812 ± 0.038 |
| SCC36 HEADNECK | 0.819 ± 0.059 |
| SCC47 HEADNECK | 0.693 ± 0.044 |
| SCC90 HEADNECK | 0.616 ± 0.066 |
| SG27 HEADNECK | 1.08 ± 0.15 |
| SG28 HEADNECK | 0.861 ± 0.13 |
| SG31 HEADNECK | 0.82 ± 0.11 |
| SG32 HEADNECK | 0.621 ± 0.047 |
| SG43 HEADNECK | 0.669 ± 0.075 |
| SIHA CERVIX | 1.03 ± 0.064 |
| SJSA1 BONE | 0.971 ± 0.033 |
| SKBR3 BREAST | 0.291 ± 0.058 |
| SNU475 LIVER | 1 ± 0.038 |
| SUM44 BREAST | 0.387 ± 0.024 |
| SUM149 BREAST | 0.768 ± 0.076 |
| SUM149.B1*.S BREAST | 0.994 ± 0.015 |
| SUM159 BREAST | 0.908 ± 0.23 |
